The values below come from patent US20250222028A1, “ENGINEERED IMMUNE CELL PLATFORM” (Cancer Research Technology Limited, priority 2022, published 2025).

For one assay, the system named is P815 target cells. The experiment in a line: VITAL cytotoxicity assay, human CD8+ CTLs with P815 target cells. Format: cell-based. The following applies: 10 μM, pre-incubation 40-50 mins, vs carrier control. Here is the method: FIG. 3. L-type Cav channel agonists increase expression of GLI1 and enhance specific cell killing by human CD8+ CTLs. Naïve human CD8+ T cells were purified from the buffy coat layer of blood isolated from healthy donors, and were stimulated using ImmunoCult™ CD3/CD28/CD2 human T-Cell Activator and again restimulated at day 10 for 3 days. (A) Human CTLs were restimulated on day 15-20 for 24 h with plate-bound anti-CD3 in the presence of 10 μM of FPL64176 or carrier control before RNA was extracted for qRT-PCR analysis. n=1 healthy donor. TBP is used as a reference gene. (B) Updated graph of (A) showing n=3 independent experiments/healthy donors. Gli1 expression is normalised to carrier. (C) Between day 16 and 24, CD8+ T cells were co-cultured with P815 target cells at indicated effector to target ratios and subjected to a VITAL cytotoxicity assay in the presence of 10 μM FPL64176 (squares) or carrier control (circles). (D) Same data as (C) represented differently. […] Error bars indicate SD. p values were calculated using an unpaired two-tailed Student's t test (B) or a two-way ANOVA (C/D). * indicates p<0.05, ** indicates p<0.01, **** indicates p<0.0001.
A VITAL assay was subsequently performed to assess the role of L-type Cav agonists with regards to specific tumour cell killing by human CD8+ CTLs. […]

In a further assay the test system is GLI1. The experiment in a line: GLI1 expression by qRT-PCR in NK-92 cells. Particulars: 10 μM. Format: cell-based, human. Here is the method:
FIG. 5. L-type Cav channel agonists increase GLI1 expression in the human NK cell line NK-92 and promote specific tumour cell killing. (A) NK-92 cells were stimulated using an anti-NKp46 mAb for 4 hours in the presence of 10 μM FPL 64176, and GLI1 expression was assessed using qRT-PCR. Data is n=4 independent experiments. (B) NK-92 cells were stimulated using an anti-NKp46 mAb for 4 hours in the presence of 100 μM Bay K8644, and GLI1 expression was assessed using qRT-PCR. Data is n=3 independent experiments. (C) An LDH assay was performed to assess specific cell killing of K562 target cells at indicated effector to target ratios in the presence of 10 μM FPL 64176 (right-hand columns) or carrier control (left-hand columns). Error bars indicate SD. Data is from n=3 independent experiments.
To investigate whether L-type Cav channel agonists are also capable of enhancing GLI1 mRNA levels in the human NK cell line NK-92 (a non-Hodgkin's lymphoma cell line, expressing only Cav1.3), NK-92 cells were stimulated using an anti-NKp46 mAb (5 μg/mL) for 4 hours in the presence of either 10 μM FPL 64176 or 100 μM Bay K8644. For reference, Bay K8644 is a structural analogue of nifedipine, and acts as an L-type Cav channel agonist. GLI1 expression was assessed using qRT-PCR. […] These observations confirm that the GLI1-inducing effect of Cav agonists is not merely restricted to the compound FPL 64176. In particular, in NK cells.
(In general: Real-time PCR tracks product formation cycle by cycle.)

Another assay has as its system K562 target cells. The experiment in a line: Flow-cytometry based killing assay, human Vγ9Vδ2 gammadelta T cells with K562 target cells. Format: cell-based. The following applies: 10 μM, killing assessed after 24 hours, vs EtOH carrier control. The method, then:
FIG. 12. GLI1 is important for tumour cell killing of human Vγ9Vδ2 gammadelta T cells and treatment with L-type voltage gated Ca2+ channel agonist FPL 64176 increases killing capacity. PBMCs were isolated from Buffy Coats of healthy donors using SepMate PBMC Isolation Tubes. Vγ9Vδ2 expansion was induced by plating PBMCs at 1×10^6 concentration with 1 μM of Zoledronate in the presence of 100 IU/mL IL-2 and 120 IU/mL IL-15. Cells were split every 2-3 days from day 6 until day 20. Killing assays were conducted between day 16-20. (A) Vγ9Vδ2 T lymphocytes were incubated with Gli1/2 inhibitor GANT61 or EToH (carrier control) overnight and subsequently co-cultured with K562 target cells for 24 h at the indicated effector to target ratios and subjected to a flow-cytometry based killing assay. n=1 individual donor. (B) Vγ9Vδ2 cells were pre-incubated with 10 μM FPL 64176 or EToH (carrier control) before being co-cultured with K562 target cells at indicated effector to target ratios and subjected to a flowcytometric cytotoxicity assay in the presence of 10 μM FPL 64176 or EToH (carrier control). Killing was assessed after 24 hours. Tumour cell killing normalised to carrier treated cells at a 10:1 effector:target ratio. n=4 individual healthy donors from 2 independent experiments. […]

Regarding `COC(=O)c1c(C)[nH]c(C)c1C(=O)c1ccccc1Cc1ccccc1` [FPL 64176], the “improvement of cell killing” value in the assay on P815 target cells is on record as approximately 70%. Also, the GLI1 expression result with GLI1 (stimulated with anti-NKp46 mAb 4 hours, vs carrier control) was “increased”; in the assay with GLI1 (unstimulated cells), “No significant increase”. For the same molecule, the “killing by gammadelta T cells” value in the assay on K562 target cells was “increased killing”.
